pIC50: −log10 of the molar value.
Test system: PKB Ser473 phosphorylation in Rat1-myr-HA-p110 delta cells
Test: Reverse protein array, PKB Ser473 phosphorylation in Rat1-myr-HA-p110 delta cells
Format: cell-based
Conditions: Rattus norvegicus, 0.5 h, 30 minutes compound incubation, read-out: p-PKB/IC50_delta

Structure (SMILES)	pIC50
CCOc1cc(-c2ccc3ncc4c(c3c2)n(-c2cccnc2C)c(=O)n4C)cnc1COC [Example 2.28, 8-(5-Ethoxy-6-methoxymethyl-pyridin-3-yl)-3-methyl-1-(2-methyl-pyridin-3-yl)-1,3-dihydro-imidazo[4,5-c]quinolin-2-one]	6.66
CNc1ncc(-c2ccc3ncc4c(c3c2)n(-c2ccc(N3CC(F)(F)C3)nc2C)c(=O)n4C)cn1 [Example 24.1, 1-[6-(3,3-Difluoro-azetidin-1-yl)-2-methyl-pyridin-3-yl]-3-methyl-8-(2-methylamino-pyrimidin-5-yl)-1,3-dihydro-imidazo[4,5-c]quinolin-2-one]	7.37
COc1ncccc1-n1c(=O)n(C)c2cnc3ccc(-c4ccc(C(N)=O)cc4)cc3c21 [Example 1.6, 4-[1-(2-Methoxy-pyridin-3-yl)-3-methyl-2-oxo-2,3-dihydro-1H-imidazo[4,5-c]quinolin-8-yl]-benzamide]	7.53
COc1cc(-c2ccc3ncc4c(c3c2)n(-c2ccc(N3CC(O)C3)nc2C)c(=O)n4C)cnc1CO [Example 29.5, 1-[6-(3-Hydroxy-azetidin-1-yl)-2-methyl-pyridin-3-yl]-8-(6-hydroxymethyl-5-methoxy-pyridin-3-yl)-3-methyl-1,3-dihydro-imidazo[4,5-c]quinolin-2-one]	6.40
Cc1nc(F)ccc1-n1c(=O)n(C)c2cnc3ccc(-c4cncc(C(C)(C)O)c4)cc3c21 [Example 7.8, 1-(6-Fluoro-2-methyl-pyridin-3-yl)-8-[5-(1-hydroxy-1-methyl-ethyl)-pyridin-3-yl]-3-methyl-1,3-dihydro-imidazo[4,5-c]quinolin-2-one]	7.09
CNc1cncc(-c2ccc3ncc4c(c3c2)n(-c2cccnc2C)c(=O)n4C)c1 [Example 2.26, 3-Methyl-8-(5-methylamino-pyridin-3-yl)-1-(2-methyl-pyridin-3-yl)-1,3-dihydro-imidazo[4,5-c]quinolin-2-one]	7.17
Cc1nc(N2CCC2)ccc1-n1c(=O)n(C)c2cnc3ccc(-c4cncc(OC(C)C)c4)cc3c21 [Example 23.9, 1-(6-Azetidin-1-yl-2-methyl-pyridin-3-yl)-8-(5-isopropoxy-pyridin-3-yl)-3-methyl-1,3-dihydro-imidazo[4,5-c]quinolin-2-one]	7.10
CNc1ncc(-c2ccc3ncc4c(c3c2)n(-c2ccc(N3CC(O)C3)nc2C)c(=O)n4C)cc1F [Example 29.3, 8-(5-Fluoro-6-methylamino-pyridin-3-yl)-1-[6-(3-hydroxy-azetidin-1-yl)-2-methyl-pyridin-3-yl]-3-methyl-1,3-dihydro-imidazo[4,5-c]quinolin-2-one]	7.19
COc1ccc(-c2ccc3ncc4c(c3c2)n(-c2ncccc2C)c(=O)n4C)cc1OC [Example 3.10, 8-(3,4-Dimethoxy-phenyl)-3-methyl-1-(3-methyl-pyridin-2-yl)-1,3-dihydro-imidazo[4,5-c]quinolin-2-one]	6.32
Cc1nc(N2CCC2)ccc1-n1c(=O)n(C)c2cnc3ccc(-c4cncc(N5CCC5)c4)cc3c21 [Example 23.1, 1-(6-Azetidin-1-yl-2-methyl-pyridin-3-yl)-8-(5-azetidin-1-yl-pyridin-3-yl)-3-methyl-1,3-dihydro-imidazo[4,5-c]quinolin-2-one]	7.17

Now those with a higher pIC50, led by results:

pIC50	Structure (SMILES)
7.61	Cc1nc(F)ccc1-n1c(=O)n(C)c2cnc3ccc(-c4cnc(N)c(C(F)(F)F)c4)cc3c21 [Example 7.1, 8-(6-Amino-5-trifluoromethyl-pyridin-3-yl)-1-(6-fluoro-2-methyl-pyridin-3-yl)-3-methyl-1,3-dihydro-imidazo[4,5-c]quinolin-2-one]
7.75	CNc1ncc(-c2ccc3ncc4c(c3c2)n(-c2ccc(N3CC[C@H](O)C3)nc2C)c(=O)n4C)cn1 [Example 32.1, 1-[6-((S)-3-Hydroxy-pyrrolidin-1-yl)-2-methyl-pyridin-3-yl]-3-methyl-8-(2-methylamino-pyrimidin-5-yl)-1,3-dihydro-imidazo[4,5-c]quinolin-2-one]
7.92	Cc1ncccc1-n1c(=O)n(C)c2cnc3ccc(-c4ccc(N)nc4)cc3c21 [Example 2.7, 8-(6-Amino-pyridin-3-yl)-3-methyl-1-(2-methyl-pyridin-3-yl)-1,3-dihydro-imidazo[4,5-c]quinolin-2-one]
7.99	Cc1nc(N2CCN(C)C(=O)C2)ccc1-n1c(=O)n(C)c2cnc3ccc(-c4cnc(N)c(C(F)(F)F)c4)cc3c21 [Example 21.1, 8-(6-Amino-5-trifluoromethyl-pyridin-3-yl)-3-methyl-1-[2-methyl-6-(4-methyl-3-oxo-piperazin-1-yl)-pyridin-3-yl]-1,3-dihydro-imidazo[4,5-c]quinolin-2-one]
7.99	CCNc1cc(-c2ccc3ncc4c(c3c2)n(-c2ccc(N3CCC3)nc2C)c(=O)n4C)cnc1CO [Example 23.8, 1-(6-Azetidin-1-yl-2-methyl-pyridin-3-yl)-8-(5-ethylamino-6-hydroxymethyl-pyridin-3-yl)-3-methyl-1,3-dihydro-imidazo[4,5-c]quinolin-2-one]
8.10	COc1ncccc1-n1c(=O)n(C)c2cnc3ccc(-c4cnc5[nH]ccc5c4)cc3c21 [Example 1.2, 1-(2-Methoxy-pyridin-3-yl)-3-methyl-8-(1H-pyrrolo[2,3-b]pyridin-5-yl)-1,3-dihydro-imidazo[4,5-c]quinolin-2-one]
